Results published in US12310364B2, “Safened compositions comprising pyridine carboxylate herbicides and cloquintocet” (Corteva Agriscience LLC, priority 2018, dated 2025).

What was measured:
[1] = system: Fagopyrum esculentum (common buckwheat), FAGES; assay: Greenhouse postemergence trial, visual injury on common buckwheat; type: in vivo
Source text: Greenhouse Trial Methodology—Evaluation of Postemergence Herbicidal Safening in Crops
Seeds of the desired test plant species were planted in a 90:10% v/v (volume/volume) mixture of PRO-MIX® BX (Premier Tech Horticulture, Quakertown, PA, USA) and PROFILE® GREENS GRADE™ (Profile Products LLC, Buffalo Grove, IL, USA) planting mixture, which typically has a pH of 5.2 to 6.2 and an organic matter content of at least 50 percent, in plastic pots with a surface area of 103.2 square centimeters (cm^2). When required to ensure good germination and healthy plants, a fungicide treatment and/or other chemical or physical treatment was applied. The plants were grown for 7-36 days (d) in a greenhouse with an approximate 14-hour (h) photoperiod which was maintained at about 23° C. during the day and 22° C. during the night. Nutrients and water were added on a regular basis and supplemental lighting was provided with overhead metal halide 1000-Watt lamps as necessary. The plants were employed for testing when they reached the second or third true leaf stage.
Emulsifiable concentrates of each of each pyridine carboxylate herbicide (Compound A or Compound B) were prepared at 100 grams acid equivalent per liter (g ae/L). An aliquot of each emulsifiable concentrate was placed in a 25 mL glass vial and diluted with an aqueous mixture of 1.25% (v/v) ACTIROB® B esterified rapeseed oil (Bayer Crop Science, Research Triangle Park, NC, USA) or MSO® Concentrate with LECI-TECH® methylated soybean oil (Loveland Products, Loveland, CO, USA) to obtain concentrated stock solutions at the highest application rate for each herbicide, based upon a 12 milliliter (mL) application volume at a rate of 187 liters per hectare (L/ha). The concentrated stock solutions were further diluted with an aqueous mixture of 1.25% v/v ACTIROB® B or MSO® Concentrate with LECI-TECH® to obtain stock solutions at reduced application rates for each herbicide. Spray solutions of the herbicide combinations (Compound A or Compound B plus safener) were prepared by adding weighed amounts or aliquots of the safener to the stock solutions of Compound A or Compound B to form 12-mL spray solutions in two-way combinations.
The spray solutions were applied to the plant material with an overhead Mandel track sprayer equipped with 8002E nozzles calibrated to deliver 187 L/ha over an application area of 0.503 square meters (m^2) at a spray height of 18 inches (43 centimeters (cm)) above the average plant canopy. Control plants were sprayed in the same manner with the solvent blank. All herbicide (component a) application rates are given as “g ae/ha” and all safener (component b) application rates are given as “g ai/ha.”
The treated plants and control plants were placed in a greenhouse as described above and watered by sub-irrigation to prevent wash-off of the test compounds. After 20-22 d, the condition of the test plants as compared with that of the control plants was determined visually and scored on a scale of 0 to 100 percent where 0 corresponds to no injury and 100 corresponds to complete kill.

[2] = system: Matricaria chamomilla (wild chamomile), MATCH; assay: Greenhouse postemergence trial, visual injury on wild chamomile; type: in vivo; details: herbicide alone 20 g/ha
Experimental: Greenhouse Trial Methodology-Evaluation of Postemergence Herbicidal […] in Crops […] When required to ensure good germination and healthy plants, a fungicide treatment and/or other chemical or physical treatment was applied. The plants were grown for 7-36 days (d) in a greenhouse with an approximate 14-hour (h) photoperiod which was maintained at about 23° C. during the day and 22° C. during the night. Nutrients and water were added on a regular basis and supplemental lighting was provided with overhead metal halide 1000-Watt lamps as necessary. The plants were employed for testing when they reached the second or third true leaf stage. Emulsifiable concentrates of each of each pyridine carboxylate herbicide (Compound A or Compound B) were prepared at 100 grams acid equivalent per liter (g ae/L). […] The concentrated stock solutions were further diluted with an aqueous mixture of 1.25% […] or MSO® Concentrate with LECI-TECH® to obtain stock solutions at reduced application rates for each herbicide. Spray solutions of the herbicide combinations (Compound A or Compound B plus safener) were prepared by adding weighed amounts or aliquots of the safener to the stock solutions of Compound A or Compound B to form 12-mL spray solutions in two-way combinations. […] Control plants were sprayed in the same manner with the solvent blank. All herbicide (component a) application rates are given as “g ae/ha” and all safener (component b) application rates are given as “g ai/ha.” The treated plants and control plants were placed in a greenhouse as described above and watered by sub-irrigation to prevent wash-off of the test compounds.

Row | SMILES | % visual injury, Ob ([1]; safener alone 5 g/ha) [%] | % visual injury, Ob ([1]; safener alone 10 g/ha) [%] | % visual injury, Ob ([1]; safener alone 20 g/ha) [%] | % visual injury, Ob ([1]; safener alone 40 g/ha) [%] | % visual injury, Ob [2] [%]
1 | CCCCCC(C)OC(=O)COc1ccc(Cl)c2cccnc12 (centres unmarked) [CQC-mexyl, cloquintocet-mexyl] | 0 | 0 | 0 | 0 | –
2 | N#CCOC(=O)c1nc(-c2ccc3cc[nH]c3c2F)c(F)c(N)c1Cl [Compound A, cyanomethyl 4-amino-3-chloro-5-fluoro-6-(7-fluoro-1H-indol-6-yl)pyridine-2-carboxylate] | – | – | – | – | 50
